In ChEMBL document CHEMBL1201862, “PubChem BioAssay data set” (2004):
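Grown in 96-well plates, cells were treated for 48 hours with each compound at five concentrations. Insufficient inhibition: endpoint recorded as highest concentration tested. GI50 is the concentration that inhibits growth by half.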 The source made the active and inactive calls. No stated cut-off is given here; in the data, active = GI50 up to about 1.1 µM and inactive = higher.

Experiments:
Test in all cases: growth of human tumour cells (NCI), 48 h
[1] = tested on: ACHN
[2] = tested on: HCC 2998
[3] = tested on: HCT-116
[4] = tested on: IGROV-1
[5] = tested on: K562
[6] = tested on: KM-20L2
[7] = tested on: KM12
[8] = tested on: M14
[9] = tested on: Malme-3M
[10] = tested on: NCI-H226
[11] = tested on: NCI-H460
[12] = tested on: OVCAR-4
[13] = tested on: SF-295
[14] = tested on: SF-539
[15] = tested on: SK-MEL-28
[16] = tested on: SNB-75
[17] = tested on: UACC-257
[18] = tested on: XF498
[19] = tested on: SF-268
[20] = tested on: MDA-N

| Compound | GI50 [1] | GI50 [2] | GI50 [3] | GI50 [4] | GI50 [5] | GI50 [6] | GI50 [7] | GI50 [8] | GI50 [9] | GI50 [10] | GI50 [11] | GI50 [12] | GI50 [13] | GI50 [14] | GI50 [15] | GI50 [16] | GI50 [17] | GI50 [18] | GI50 [19] | GI50 [20] |
| --- | --- | --- | --- | --- | --- | --- | --- | --- | --- | --- | --- | --- | --- | --- | --- | --- | --- | --- | --- | --- |
| COC(=O)c1ccc(/N=N/N(C)CO)cc1 | 80.2 µM (inactive) | > 100 µM (inactive) | > 100 µM (inactive) | > 100 µM (inactive) | 68.4 µM (inactive) | > 100 µM (inactive) | > 100 µM (inactive) | 71.1 µM (inactive) | > 100 µM (inactive) | > 100 µM (inactive) | > 100 µM (inactive) | 55.8 µM (inactive) | 78 µM (inactive) | 57.4 µM (inactive) | > 100 µM (inactive) | 27.7 µM (inactive) | > 100 µM (inactive) | 9.44 µM (inactive) |  |  |
| CC1=C(O)C(=O)[C@@H]2O[C@@H]2C1=O |  | 15.2 µM (inactive) | 7.36 µM (inactive) | 20.1 µM (inactive) | 5.64 µM (inactive) | 17.2 µM (inactive) | 14.1 µM (inactive) |  | 6.14 µM (inactive) | 14.5 µM (inactive) | 19 µM (inactive) | 14.6 µM (inactive) | 28.2 µM (inactive) | 15.9 µM (inactive) | 5.98 µM (inactive) | 17.4 µM (inactive) | 11.1 µM (inactive) | 10.4 µM (inactive) | 14.2 µM (inactive) |  |
| N#CC(OC1OC(COC2OC(CO)C(O)C(O)C2O)C(O)C(O)C1O)c1ccccc1 (centres undefined) |  | > 225 µM (inactive) | > 225 µM (inactive) | > 225 µM (inactive) | > 225 µM (inactive) | > 225 µM (inactive) | > 225 µM (inactive) |  | > 225 µM (inactive) | > 225 µM (inactive) | > 225 µM (inactive) | > 225 µM (inactive) | > 225 µM (inactive) | > 225 µM (inactive) | > 225 µM (inactive) | > 225 µM (inactive) | > 225 µM (inactive) | > 225 µM (inactive) | > 225 µM (inactive) |  |
| O=C(CCc1nnc(S)[nH]1)Nc1cccc(C(F)(F)F)c1 | > 100 µM (inactive) | > 100 µM (inactive) | > 100 µM (inactive) | > 100 µM (inactive) | > 100 µM (inactive) | > 100 µM (inactive) | > 100 µM (inactive) | > 100 µM (inactive) | > 100 µM (inactive) | > 100 µM (inactive) | > 100 µM (inactive) | > 100 µM (inactive) | > 100 µM (inactive) | > 100 µM (inactive) | > 100 µM (inactive) | > 100 µM (inactive) | > 100 µM (inactive) | > 100 µM (inactive) | > 100 µM (inactive) |  |
| CC(=O)Nc1ccc(C(=O)NN2C(=O)C(Cl)C2c2cc(Br)cc(Br)c2O)cc1 (centres undefined) | > 100 µM (inactive) | > 100 µM (inactive) | > 100 µM (inactive) | 52.6 µM (inactive) | > 100 µM (inactive) | > 100 µM (inactive) | > 100 µM (inactive) | > 100 µM (inactive) | > 100 µM (inactive) | > 100 µM (inactive) | > 100 µM (inactive) | > 100 µM (inactive) |  | > 100 µM (inactive) | > 10 µM (inactive) | 37.3 µM (inactive) | > 100 µM (inactive) | > 100 µM (inactive) | > 100 µM (inactive) |  |
| O=C(CSSCC(=O)Nc1ccc(Br)cc1)Nc1ccc(Br)cc1 | 15.8 µM (inactive) | 22.1 µM (inactive) | 14.4 µM (inactive) | 18.2 µM (inactive) | 21.2 µM (inactive) | 15.1 µM (inactive) | 19.1 µM (inactive) | 17.7 µM (inactive) | 21.8 µM (inactive) | 16.9 µM (inactive) | 16.9 µM (inactive) | 20 µM (inactive) | 14.7 µM (inactive) | 17.6 µM (inactive) | 18.5 µM (inactive) | 20.7 µM (inactive) | 20.7 µM (inactive) | 20.1 µM (inactive) | 13.7 µM (inactive) |  |
| CCC(COC(=O)CC[C@@H](NC(=O)C(C)NC(=O)C(C)OC1C(O)C(CO)OC(OCc2ccccc2)C1NC(C)=O)C(N)=O)NC1c2ccccc2Nc2cccc([N+](=O)[O-])c21 (some centres undefined) | > 100 µM (inactive) | > 100 µM (inactive) | > 100 µM (inactive) | > 100 µM (inactive) | > 100 µM (inactive) | > 100 µM (inactive) | > 100 µM (inactive) | > 100 µM (inactive) | > 100 µM (inactive) | > 100 µM (inactive) | 54 µM (inactive) | > 100 µM (inactive) | > 100 µM (inactive) | > 100 µM (inactive) | > 100 µM (inactive) | 94.8 µM (inactive) | > 100 µM (inactive) | > 100 µM (inactive) | > 100 µM (inactive) |  |
| CCCCC#C[I+]c1ccccc1 | 17.2 µM (inactive) | 20.1 µM (inactive) | 16 µM (inactive) | 19.9 µM (inactive) | 15.2 µM (inactive) | 18.3 µM (inactive) | 14.2 µM (inactive) | 15.5 µM (inactive) | 14.8 µM (inactive) | 15.5 µM (inactive) | 11.3 µM (inactive) | 14.9 µM (inactive) | 22.4 µM (inactive) | 22.4 µM (inactive) | 17 µM (inactive) | 15.6 µM (inactive) | 16.3 µM (inactive) | 15.3 µM (inactive) | 19.9 µM (inactive) |  |
| Cn1c(=O)nc2n(-c3ccc(Br)cc3)c3ccccc3nc-2c1=O | 0.543 µM (active) | 2.21 µM (inactive) | 4.11 µM (inactive) | 11.7 µM (inactive) | 5.43 µM (inactive) | 2.54 µM (inactive) | 8.83 µM (inactive) | 3.75 µM (inactive) | 3.61 µM (inactive) | 11 µM (inactive) | 1.82 µM (inactive) | 3.51 µM (inactive) | 3.66 µM (inactive) | 5.85 µM (inactive) |  | 4.65 µM (inactive) | 2.69 µM (inactive) | 12.1 µM (inactive) | 11.3 µM (inactive) |  |
| Cc1c(-c2ccc(-c3ccccc3F)cc2)nc2ccc(F)cc2c1C(=O)O [BREQUINAR SODIUM] | 0.153 µM (active) | 9.62 µM (inactive) | 0.104 µM (active) | 0.303 µM (active) | 0.143 µM (active) | 0.615 µM (active) | 0.211 µM (active) | 4.7 µM (inactive) | 15.4 µM (inactive) | 19.5 µM (inactive) | 0.128 µM (active) | 2.73 µM (inactive) | 0.243 µM (active) | 0.346 µM (active) | 9.93 µM (inactive) | 30.3 µM (inactive) | 12.5 µM (inactive) | 18.1 µM (inactive) | 0.372 µM (active) | 0.631 µM (active) |
